Results published in US9399038B2, “Benzothiophene compound” (ASTELLAS PHARMA INC., priority 2013, dated 2016).
Structures can show the parent of a compound that is named as a salt.

Key:
[1] = tested on: monoiodoacetate-induced osteoarthritis model; test: Inhibitory effect on hindlimb weight distribution in monoiodoacetate-induced osteoarthritis model; format: in vivo, rat; settings: for significance versus solvent group: at the dose shown in Table 5, P<0.05; for Improvement rate: male SD rats, 1 mg/kg oral, 3 weeks after MIA, 1 or 2 hours after administration
Experimental: (§1) Moreover, in Test Examples 2 to 6, a 0.5% methyl cellulose suspension was used as a test drug.
This model is a model of osteoarthritis, and action to osteoarthritis pain can be evaluated using the model. This test was performed based on The Journal of Pharmacology and Experimental Therapeutics, 2010, vol. 334, p. 955-963. Under isoflurane anesthesia, 1 mg/site of monoiodoacetate (hereinafter referred to as MIA) (manufactured by Sigma-Aldrich Co., LLC) solution was singly administered into the right knee joint cavity of male SD rats (provided by Charles River Laboratories, Japan). MIA was dissolved in physiological saline, and 50 μL thereof was administered using a 27 gauge×0.5 inches needle. 3 weeks after the MIA administration, the solvent or the test drug was orally administered. After 1 or 2 hours, the weight distribution between the left and the right hindlimb was measured using an Incapacitance Tester (manufactured by Linton Instrumentation). A significant difference test of a solvent group and a test drug group was performed in comparison between groups using Student's t-test or Dunnett multiple comparison test. With P<0.05 in each assay, it was determined that there was a significant difference.
Effectiveness with respect to a monoiodoacetate-induced osteoarthritis model of the several representative Example compounds of the invention is shown in the following Table.

[2] = tested on: reserpine-induced myalgia model; test: Effect on tenderness threshold value in reserpine-induced myalgia model; format: in vivo, rat
Experimental: as §1
This model is a model which imitates a fibromyalgia disease. This test was performed based on Pain, 2009, vol. 146, p 26-33. Reserpine (1 mg/kg) was subcutaneously administered into male SD rats (provided by Japan SLC, Inc, Japan) once a day for 3 days. After 5 days, the solvent or the test drug was orally administered. After 2 hours, a tenderness threshold value was measured using Randall-Selitto equipment (manufactured by Muromachi Kikai Co., Ltd.) in a gastrocnemius muscle. A significant difference test of a solvent group and a test drug-administered group was performed in comparison between groups using Student's t-test or Dunnett multiple comparison test. Here, a value obtained by administering the solvent to a normal rat to which reserpine was not administered was set as 100%, and a value of the reserpine group into which the solvent was administered was set as 0%. With P<0.05 in each assay, it was determined that there was a significant difference.

[3] = tested on: adjuvant-induced arthritis rat; test: Inhibitory effect on hindlimb weight distribution in adjuvant-induced arthritis rat; format: in vivo; settings: for significance versus solvent group: at the dose shown in Table 4, P<0.05; for MED (minimum effective dose): female Lewis rat, oral, 1 or 2 hours after administration, hindlimb weight distribution
Experimental: as §1
This model is a model to study inflammatory pain. 50 μL of killed Mycobacterium tuberculosis H37Ra (manufactured by DIFCO Laboratories) suspended in a liquid paraffin was subcutaneously administered into a right hindlimb footpad of a female Lewis rat (provided by Charles River Laboratories, Japan) so as to be 10 mg/mL. Next day, the solvent or the test drug was orally administered. After 1 or 2 hours, the weight distribution between the left and the right hindlimbs was measured using an Incapacitance Tester (manufactured by Linton Instrumentation). A significant difference test of a solvent group and a test drug group was performed in comparison between groups using Student's t-test or Dunnett multiple comparison test. With P<0.05 in each assay, it was determined that there was a significant difference.
Effectiveness in the adjuvant-induced arthritis rat test of the several representative Example compounds of the invention is shown in the following Table.

[4] = tested on: abdominal pain by rat colorectal distension; test: Effect on abdominal pain by rat colorectal distension; format: in vivo; settings: for MED (minimum effective dose): Wistar male rats, oral, 1 hour after administration, abdominal flexion behavior; for significance versus solvent group: at the dose shown in Table 3, P<0.05
Experimental: as §1
After Wistar male rats (CLEA Japan, Inc.) were anesthetized with isoflurane, a balloon was inserted into the colon. After awakening, the test drug was orally administered, and after 1 hour, abdominal pain induced by balloon expansion was measured as an indicator of an abdominal flexion behavior. Each stimulus (15, 30, 45, 60 mmHg) was repeatedly performed for 5 minutes at 5-minute intervals. A significant difference test of a solvent group and a test drug group was performed in comparison between groups using Student's t-test or Dunnett multiple comparison test. With P<0.05 in each assay, it was determined that there was a significant difference.
Effectiveness in the abdominal pain test by rat colorectal distension of the several representative Example compounds of the invention is shown in the following Table (In the Table, MED means a minimum effective dose. The same shall apply hereinafter.).

vagotomized rat = test: Action to tenderness threshold value in vagotomized rat; format: in vivo; settings: for significance versus solvent group: at the dose shown in Table 6, P<0.05; for Improvement rate (tenderness threshold value): male SD rats, 3 mg/kg oral, after 2 hours, sham = 100%, surgery solvent group = 0%
Experimental: as §1
The model was made based on Neuroscience, 2009, vol. 164, p. 1252-1262. Male SD rats (provided by Japan SLC, Inc, Japan) were anesthetized with somnopentyl, followed by shaving near a xiphisternum. Incision was performed along the midline from the xiphisternum to the tail side. A stomach and an esophagus under a diaphragm were exposed, and vagus nerves on both sides of the esophagus were transected. Muscle and skin were sutured in order. 1 to 3 weeks after the surgery, a decrease in the tenderness threshold value was confirmed. The solvent or the test drug was orally administered, and after 2 hours, the tenderness threshold value was measured using Randall-Selitto equipment (manufactured by Muromachi Kikai Co., Ltd.) in a gastrocnemius muscle. A significant difference test of a solvent group and a test drug group was performed in comparison between groups using Student's t-test or Dunnett multiple comparison test. With P<0.05 in each assay, it was determined that there was a significant difference.
Effectiveness of several representative Example compounds of the invention is shown in the following Table as an improvement rate when a value of a group in which the solvent was administered into a sham surgery group was set as 100%, and a value of a group in which the solvent was administered into a surgery group was set as 0%.

IK1 channel [5] = target: T1, IK1 channel (Homo sapiens, UniProt O15554); test: IK1 channel opening activity measurement test (membrane potential, T84 cells); format: cell-based; parameters: T84 cells (which is known as IK1 channel expressing cells); endogenous in cells; host or cells: T84 cells; settings: NS-309 0.2 μM = 100%, DMSO = 0%, read-out: EC50 of IK1 channel opening action
Experimental: (§2) Cells ((1) T84 cells (which is known as IK1 channel expressing cells) or (2) human IK1 channel expressing cells (transgene: NM_002250.2, use cells: CHO dhfr-)) were seeded in a 384-well microplate so as to be 12000 cells/well. After incubation overnight, a medium was suctioned, and 20 μL of FLIPR Membrane Potential Assay Reagent (FLIPR Membrane Potential Assay kit, manufactured by Molecular Devices LLC) was added to the medium, followed by incubation at room temperature for 1 hour. Fluorescence intensity was measured at 530 nm/590 nm, which was set as a pre value. 20 μL of a buffer solution containing a test drug (which contains 0.01% pluronic acid and 20 mM Hepes-NaOH (pH7.4); 0.2% CHAPS in HBSS) was added, followed by incubation at room temperature for 1 hour, and a post value was measured. Activity of the test drug was determined from relative values where NS-309 (6,7-dichloro-1H-indole-2,3-dione 3-oxime, manufactured by Sigma-Aldrich Co., LLC; 0.2 μM; DMSO solution) treatment was set as 100%, and DMSO treatment was set as 0%. Activity value (%) at each concentration was plotted against a concentration of the test drug, and EC50 value was calculated by a Logistic regression method.
(§3) The EC50 values of an IK1 channel opening action of the several representative Example compounds of the invention are shown in the following Table (in the Table, No. means a number, and Ex means an Example compound number. The same shall apply hereinafter.). […] With P<0.05 in each assay, it was determined that there was a significant difference.

IK1 channel [6] = target: T1, IK1 channel; test: IK1 channel opening activity measurement test (membrane potential, human IK1 channel expressing CHO dhfr- cells); format: cell-based; parameters: expressed in transfected cells; host or cells: CHO dhfr- cells; settings: NS-309 0.2 μM = 100%, DMSO = 0%, read-out: EC50 of IK1 channel opening action
Experimental: as §2, §3

| SMILES | significance versus solvent group [1] | Improvement rate [1] | significance versus solvent group ([2]; 1 mg/kg, P<0.05) | Improvement rate (tenderness threshold value) ([2]; male SD rats, 1 mg/kg oral, after 2 hours, normal rat = 100%, reserpine solvent group = 0%) | significance versus solvent group [3] | MED (minimum effective dose) [3] [mg/kg] | MED (minimum effective dose) [4] [mg/kg] | significance versus solvent group [4] | significance versus solvent group (vagotomized rat) | Improvement rate (tenderness threshold value) (vagotomized rat) | EC50 (IK1 channel [5]) [nM] | EC50 (IK1 channel [6]) [nM] |
| --- | --- | --- | --- | --- | --- | --- | --- | --- | --- | --- | --- | --- |
| Cc1sc2cc(Cl)ccc2c1-c1ccc(N2CCO[C@H](CNC3CCC3)C2)c(C(=O)O)c1 [Ex10, 5-(6-chloro-2-methyl-1-benzothiophen-3-yl)-2-{(2R)-2-[(cyclobutylamino)methyl]morpholin-4-yl}benzoic acid monohydrochloride] | significant activity | >50% (l mg/kg) | significant activity | higher than 50% | significant activity | 3 | 0.3 | significant activity | significant activity | >50% (3 mg/kg) | 3890 | 93 |
| O=C(O)c1cc(-c2c(F)sc3cc(Cl)ccc23)ccc1N1CCO[C@H](CNC2CCC2)C1 [Ex11, 5-(6-chloro-2-fluoro-1-benzothiophen-3-yl)-2-{(2R)-2-[(cyclobutylamino)methyl]morpholin-4-yl}benzoic acid hydrochloride] | significant activity | >50% (l mg/kg) | – | – | significant activity | 3 | – | – | – | – | 3070 | 11 |
| Cc1sc2cc(Cl)c(F)cc2c1-c1ccc(N2CCO[C@H](CNC3CCC3)C2)c(C(=O)O)c1 [Ex18, 5-(6-chloro-5-fluoro-2-methyl-1-benzothiophen-3-yl)-2-{(2R)-2-[(cyclobutylamino)methyl]morpholin-4-yl}benzoic acid hydrochloride] | significant activity | >50% (1 mg/kg) | – | – | significant activity | 3 | 0.3 | significant activity | significant activity | >50% (3 mg/kg) | 920 | 48 |
| CC(C)(C)NC[C@H]1CCCN(c2ccc(-c3csc4cc(C(F)(F)F)ccc34)cc2C(=O)O)C1 [Ex14, 2-{(3R)-3-[(tert-butylamino)methyl]piperidin-1-yl}-5-[6-(trifluoromethyl)-1-benzothiophen-3-yl]benzoic acid hydrochloride] | significant activity | 42% (1 mg/kg) | – | – | significant activity | 1 | – | – | significant activity | >50% (3 mg/kg) | 3170 | 28 |
| O=C(O)c1cc(-c2csc3cc(C(F)(F)F)ccc23)ccc1N1CCO[C@H](CNC2CCC2)C1 [Ex12] | – | – | – | – | – | – | – | – | – | – | 1750 | 24 |
| O=C(O)c1cc(-c2csc3cc(C(F)(F)F)c(Cl)cc23)ccc1N1CCO[C@H](CNC2CCC2)C1 [Ex15, 5-[5-chloro-6-(trifluoromethyl)-1-benzothiophen-3-yl]-2-{(2R)-2-[(cyclobutylamino)methyl]morpholin-4-yl}benzoic acid hydrochloride] | – | – | – | – | – | – | – | – | significant activity | >50% (3 mg/kg) | – | – |
| Cc1sc2cc(Cl)ccc2c1-c1ccc(N2CCO[C@H](CNC(C)(C)C)C2)c(C(=O)O)c1 [Ex16] | – | – | – | – | – | – | – | – | – | – | 8040 | 33 |
| Cc1sc2cc(F)ccc2c1-c1ccc(N2CCO[C@H](CNC3CCC3)C2)c(C(=O)O)c1 [Ex13] | – | – | – | – | – | – | – | – | – | – | 3760 | 52 |
| Cc1sc2cc(Cl)c(F)cc2c1-c1ccc(N2CCO[C@H](CNC(C)(C)C)C2)c(C(=O)O)c1 [Ex19] | – | – | – | – | – | – | – | – | – | – | 1500 | 5.5 |
